PubChem BioAssay AID1963965 (Molecular Pharmacology Branch, DTP, NCI, 2024)

Test system: 996289-038-R-J1-PDC spheroid viability
Experiment: Anticancer human tumor 996289-038-R-J1-PDC patient-derived colon adenocarcinoma cell line growth inhibition [PI3K]
Conditions: spheroids with HUVEC and MSC; for IC50: curve of first compound; for viability, T/C: stronger effect = lower value
Description: Combinatorial screen of targeted agents with the PI3K inhibitors inavolisib, alpelisib, duvelisib, and copanlisib in multi-cell type tumor spheroids
A high-throughput screen of multi-cell type tumor spheroids was designed to identify active combinations of targeted small molecules and PI3K pathway inhibitors. Complex spheroids include a stromal component modeled by human endothelial cells (HUVEC) and fibroblasts modeled by human mesenchymal stem cells (MSCs). The concentration ranges selected for each drug and investigational agent were based upon clinically achievable concentrations if the clinical Cmax of the agent was known.
Compounds. The drugs and investigational agents: inavolisib (NSC800729), alpelisib (NSC765974), duvelisib (NSC772469), copanlisib (NSC816437), ipatasertib (NSC767898), afuresertib (NSC778305), talazoparib (NSC767125), sapanisertib (NSC764658), selumetinib (NSC741078), tovorafenib (DAY101, NSC766906), vemurafenib (NSC761431), ravoxertinib (NSC781343), sotorasib (NSC818433), MRTX1133 (NSC 836407), abemaciclib (NSC 768073), palbociclib (NSC758247), venetoclax (NSC 766270), SY5609 (NSC837396), enzalutamide (NSC755605), and darolutamide (NSC825331), were obtained from the National Cancer Institute (NCI) Developmental Therapeutics Program Chemical Repository. The FDA-approved anticancer drug set is available from the NCI Developmental Therapeutics Program. […] The stock solutions were prepared in dimethyl sulfoxide (DMSO, Sigma-Aldrich, St. Louis, MO, cat. D2650) at 800-fold the tested concentration and stored at -70 degrees C prior to their use. All drugs and investigational agents were tested over a range starting from a high concentration at or near the clinical Cmax and decreasing in half-log increments. If the clinical Cmax for an agent had not been determined, the highest concentration tested was 10 microM.
Cell Culture. All cells were maintained in an incubator at 37 degrees C and 5% CO2 with 95% humidity. The PDC lines were cultured according to standard operating procedures established by the NCI PDMR (https://pdmr.cancer.gov/sops/default.htm). All PDCs were thawed and cultured in Matrigel-coated flasks prepared with a working solution of 1X Ham's F-12 nutrient mix, without supplementation (Invitrogen, Waltham, MA, cat. 11765054), 100 U/mL penicillin-streptomycin (Invitrogen, cat. 15140122), and 2.5% Matrigel (Corning Inc., Corning, NY, cat. 354248) for the first three passages. The 354836-022-R-J1-PDC, 475296-252-R-J1-PDC, and 997726-040-R-J2-PDC lines were cultured in 6A media, which includes advanced DMEM/F-12 (Thermo Fisher Scientific, cat. 12634028), 10 mM HEPES (Thermo Fisher Scientific, cat. 15630080), 1X GlutaMAX supplement (Thermo Fisher Scientific, cat. 35050061), 0.1 mg/mL primocin (InvivoGen, San Diego, CA, cat. ant-pm-2), 10% defined fetal bovine serum, heat inactivated (HyClone Laboratories Inc., Logan, UT, cat. SH30070.03HI), 50% L-WRN conditioned media (ATCC, cat. CRL-3276), 1.25 mM N-Acetyl-L-cysteine (Sigma-Aldrich, cat. A9165), 10 mM nicotinamide (Sigma-Aldrich, cat. N0636), 1X B-27 supplement (Thermo Fisher Scientific, cat. 17504044), 1X N-2 supplement (Thermo Fisher Scientific, cat. 17502048), and 10 microM Y-27632 dihydrochloride (Tocris Bioscience, Bristol, United Kingdom, cat. 1254). The 624824-186-R-J2-PDC line was cultured in 6C/Colon 1B media, which includes all 6A media components plus 50 ng/mL human EGF recombinant protein (Thermo Fisher Scientific, cat. PHG0311). […]

[1] = second compound 0.0316 µM, first compound 0.0316 µM
[2] = second compound 0.0316 µM, first compound 0.1 µM
[3] = second compound 0.1 µM, first compound 0.0316 µM
[4] = second compound 0.1 µM, first compound 0.1 µM
[5] = second compound 0.316 µM, first compound 0.0316 µM
[6] = second compound 0.316 µM, first compound 0.1 µM
[7] = second compound 1 µM, first compound 0.0316 µM
[8] = second compound 1 µM, first compound 0.1 µM
[9] = second compound 3.16 µM, first compound 0.0316 µM
[10] = second compound 3.16 µM, first compound 0.1 µM
[11] = second compound 10 µM, first compound 0.0316 µM
[12] = second compound 10 µM, first compound 0.1 µM
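Also: spheroids exposed to compounds for seven days before viability read.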
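For viability, T/C in this document: luminescence used as a proxy for viable cell amount; percent viability relative to DMSO vehicle control as 100%.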

Cn1ncnc1[C@H]1c2n[nH]c(=O)c3cc(F)cc(c23)N[C@@H]1c1ccc(F)cc1 + CC(Nc1ncnc2nc[nH]c12)c1cc2cccc(Cl)c2c(=O)n1-c1ccccc1
IC50 (second compound 0.0316 µM): > 0.1 µM | IC50 (second compound 0.1 µM): > 0.1 µM | IC50 (second compound 0.316 µM): > 0.1 µM | IC50 (second compound 1 µM): > 0.1 µM | IC50 (second compound 3.16 µM): > 0.1 µM | IC50 (second compound 10 µM): > 0.1 µM | viability, T/C (second compound 0.0316 µM, first compound 0.000316 µM): 97.1% | viability, T/C (second compound 0.0316 µM, first compound 0.001 µM): 99.7% | viability, T/C (second compound 0.0316 µM, first compound 0.00316 µM): 107% | viability, T/C (second compound 0.0316 µM, first compound 0.01 µM): 104% | viability, T/C [1]: 111% | viability, T/C [2]: 94.3% | viability, T/C (second compound 0.1 µM, first compound 0.000316 µM): 107% | viability, T/C (second compound 0.1 µM, first compound 0.001 µM): 98.4% | viability, T/C (second compound 0.1 µM, first compound 0.00316 µM): 96.1% | viability, T/C (second compound 0.1 µM, first compound 0.01 µM): 96.3% | viability, T/C [3]: 122% | viability, T/C [4]: 96.4% | viability, T/C (second compound 0.316 µM, first compound 0.000316 µM): 93.9% | viability, T/C (second compound 0.316 µM, first compound 0.001 µM): 102% | viability, T/C (second compound 0.316 µM, first compound 0.00316 µM): 110% | viability, T/C (second compound 0.316 µM, first compound 0.01 µM): 100% | viability, T/C [5]: 109% | viability, T/C [6]: 89.8% | viability, T/C (second compound 1 µM, first compound 0.000316 µM): 95.1% | viability, T/C (second compound 1 µM, first compound 0.001 µM): 94.3% | viability, T/C (second compound 1 µM, first compound 0.00316 µM): 103% | viability, T/C (second compound 1 µM, first compound 0.01 µM): 96.3% | viability, T/C [7]: 103% | viability, T/C [8]: 95.2% | viability, T/C (second compound 3.16 µM, first compound 0.000316 µM): 90.4% | viability, T/C (second compound 3.16 µM, first compound 0.001 µM): 109% | viability, T/C (second compound 3.16 µM, first compound 0.00316 µM): 94.5% | viability, T/C (second compound 3.16 µM, first compound 0.01 µM): 96.3% | viability, T/C [9]: 95.4% | viability, T/C [10]: 94.8% | viability, T/C (second compound 10 µM, first compound 0.000316 µM): 90% | viability, T/C (second compound 10 µM, first compound 0.001 µM): 90.5% | viability, T/C (second compound 10 µM, first compound 0.00316 µM): 96.8% | viability, T/C (second compound 10 µM, first compound 0.01 µM): 81.5% | viability, T/C [11]: 94.6% | viability, T/C [12]: 77.8%

C=CC(=O)N1CCN(c2nc(=O)n(-c3c(C)ccnc3C(C)C)c3nc(-c4c(O)cccc4F)c(F)cc23)C(C)C1 (centres undefined) + CC(Nc1ncnc2nc[nH]c12)c1cc2cccc(Cl)c2c(=O)n1-c1ccccc1
IC50 (second compound 0.0316 µM): > 10 µM | IC50 (second compound 0.1 µM): > 10 µM | IC50 (second compound 0.316 µM): > 10 µM | IC50 (second compound 1 µM): > 10 µM | IC50 (second compound 3.16 µM): > 10 µM | IC50 (second compound 10 µM): > 10 µM | viability, T/C [1]: 101% | viability, T/C [2]: 97.8% | viability, T/C (second compound 0.0316 µM, first compound 0.316 µM): 91.2% | viability, T/C (second compound 0.0316 µM, first compound 1 µM): 100% | viability, T/C (second compound 0.0316 µM, first compound 3.16 µM): 107% | viability, T/C (second compound 0.0316 µM, first compound 10 µM): 106% | viability, T/C [3]: 113% | viability, T/C [4]: 93.1% | viability, T/C (second compound 0.1 µM, first compound 0.316 µM): 98.1% | viability, T/C (second compound 0.1 µM, first compound 1 µM): 106% | viability, T/C (second compound 0.1 µM, first compound 3.16 µM): 120% | viability, T/C (second compound 0.1 µM, first compound 10 µM): 97% | viability, T/C [5]: 95.1% | viability, T/C [6]: 106% | viability, T/C (second compound 0.316 µM, first compound 0.316 µM): 107% | viability, T/C (second compound 0.316 µM, first compound 1 µM): 107% | viability, T/C (second compound 0.316 µM, first compound 3.16 µM): 105% | viability, T/C (second compound 0.316 µM, first compound 10 µM): 105% | viability, T/C [7]: 93.8% | viability, T/C [8]: 88.3% | viability, T/C (second compound 1 µM, first compound 0.316 µM): 101% | viability, T/C (second compound 1 µM, first compound 1 µM): 98.6% | viability, T/C (second compound 1 µM, first compound 3.16 µM): 112% | viability, T/C (second compound 1 µM, first compound 10 µM): 99.6% | viability, T/C [9]: 97.2% | viability, T/C [10]: 101% | viability, T/C (second compound 3.16 µM, first compound 0.316 µM): 88.3% | viability, T/C (second compound 3.16 µM, first compound 1 µM): 101% | viability, T/C (second compound 3.16 µM, first compound 3.16 µM): 118% | viability, T/C (second compound 3.16 µM, first compound 10 µM): 107% | viability, T/C [11]: 103% | viability, T/C [12]: 88.4% | viability, T/C (second compound 10 µM, first compound 0.316 µM): 90.7% | viability, T/C (second compound 10 µM, first compound 1 µM): 97.9% | viability, T/C (second compound 10 µM, first compound 3.16 µM): 105% | viability, T/C (second compound 10 µM, first compound 10 µM): 95.9%
